Test results as given in US20250011288A1 (BRISTOL-MYERS SQUIBB COMPANY, priority 2021, published 2025).

Molecular target: T1, human RXFP1 (Homo sapiens, UniProt Q9HBX9)
T1 construct: expressed in transfected cells
T1 sequence (Q9HBX9 1-757): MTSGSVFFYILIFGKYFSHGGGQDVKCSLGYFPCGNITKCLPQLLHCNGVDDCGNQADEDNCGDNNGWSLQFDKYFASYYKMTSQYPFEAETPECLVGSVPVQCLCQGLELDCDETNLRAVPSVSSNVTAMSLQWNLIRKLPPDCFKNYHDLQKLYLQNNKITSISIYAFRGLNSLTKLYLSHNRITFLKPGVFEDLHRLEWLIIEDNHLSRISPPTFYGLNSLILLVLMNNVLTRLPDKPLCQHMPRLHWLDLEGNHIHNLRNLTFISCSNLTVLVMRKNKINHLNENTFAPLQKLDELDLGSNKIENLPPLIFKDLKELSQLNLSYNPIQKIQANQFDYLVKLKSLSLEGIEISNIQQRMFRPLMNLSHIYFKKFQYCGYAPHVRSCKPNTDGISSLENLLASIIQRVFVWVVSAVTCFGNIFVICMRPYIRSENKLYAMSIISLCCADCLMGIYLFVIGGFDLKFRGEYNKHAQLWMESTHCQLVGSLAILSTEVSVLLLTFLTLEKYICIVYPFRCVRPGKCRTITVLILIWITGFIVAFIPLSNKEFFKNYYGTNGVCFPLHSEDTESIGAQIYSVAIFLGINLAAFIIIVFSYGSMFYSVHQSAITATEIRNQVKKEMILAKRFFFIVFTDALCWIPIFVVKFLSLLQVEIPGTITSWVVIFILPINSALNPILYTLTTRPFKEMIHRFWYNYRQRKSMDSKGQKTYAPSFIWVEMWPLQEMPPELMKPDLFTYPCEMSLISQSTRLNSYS
Assay: human RXFP1 (hRXFP1) HEK293 cAMP assay (HTRF)
Format: cell-based
Settings: HEK293 cells stably expressing human RXFP1, 30 min at room temperature
Description: RXFP1 Cyclic Adenosine Monophosphate (cAMP) Assays. […] Cells were dissociated and suspended in assay buffer. The assay buffer was HBSS buffer (with calcium and magnesium) containing 20 mM HEPES, 0.05% BSA, and 0.5 mM IBMX. Cells (3000 cells per well, except 1500 cell per well for HEK293 cells stably expressing human RXFP1) were added to 384-well Proxiplates (Perkin-Elmer). Cells were immediately treated with test compounds in DMSO (2% final) at final concentrations in the range of 0.010 nM to 50 µM. Cells were incubated for 30 min at room temperature. The level of intracellular cAMP was determined using the HTRF HiRange cAMP assay reagent kit (Cisbio) according to manufacturer's instructions. Solutions of cryptate conjugated anti-cAMP and d2 fluorophore-labelled cAMP were made in a supplied lysis buffer separately. Upon completion of the reaction, the cells were lysed with equal volume of the d2-cAMP solution and anti-cAMP solution. […] The potency and activity of a compound to […] cAMP production was then determined by fitting to a 4-parametric logistic equation from a plot of cAMP level versus compound concentrations.

SMILES	EC50 [nM]
CCC(O)C1CC2ON=C(c3cnc(OC)c(C(=O)N[C@H]4[C@@H](C(=O)Nc5ccc(F)c(C(F)(F)F)c5)[C@H]5CC[C@@H]4/C5=C\C4CC4)c3)C2C1 (stereo partly drawn) [Example 113, N-((1R,2R,3S,4R,Z)-7-(cyclopropyl-methylene)-3-((4-fluoro-3-(trifluoromethyl)phenyl)carbamoyl)bicyclo[2.2.1]heptan-2-yl)-5-(5-(1-hydroxypropyl)-3a,5,6,6a-tetrahydro-4H-cyclopenta[d]isoxazol-3-yl)-2-methoxynicotinamide]	4.3
CC(C)=C1C2CCC1[C@H](C(=O)Nc1ccc(F)c(C(F)(F)F)c1)[C@@H]2NC(=O)c1cc(C#N)ccn1 (stereo partly drawn) [Example 3, 4-cyano-N-[(2R,3S)-3-{[4-fluoro-3-(trifluoromethyl)phenyl]carbamoyl}-7-(propan-2-ylidene)bicyclo [2.2.1]heptan-2-yl]pyridine-2-carboxamide]	440
COc1cc2c(cc1C(=O)N[C@H]1[C@@H](C(=O)Nc3ccc(F)c(C(F)(F)F)c3)[C@H]3CC[C@@H]1/C3=C\C1CC1)CN(C(=O)OC(C)(C)C)CC2 [Example 82, tert-butyl 7-(((1R,2R,3S,4R,Z)-7-(cyclopropylmethylene)-3-((4-fluoro-3-(trifluoromethyl)phenyl)carbamoyl)bicyclo[2.2.1]heptan-2-yl)carbamoyl)-6-methoxy-3,4-dihydroisoquinoline-2(1H)-carboxylate]	660
COc1ncc(C2=NOC3CC(C(C)O)CC23)cc1C(=O)N[C@H]1[C@@H](C(=O)Nc2ccc(F)c(C(F)(F)F)c2)[C@H]2CC[C@@H]1/C2=C\CCC(F)(F)F (stereo partly drawn) [Example 124, N-((1R,2R,3S,4R,Z)-3-((4-fluoro-3-(trifluoromethyl)phenyl)carbamoyl)-7-(4,4,4-trifluorobutylidene)bicyclo[2.2.1]heptan-2-yl)-5-(5-(1-hydroxyethyl)-3a,5,6,6a-tetrahydro-4H-cyclopenta[d]isoxazol-3-yl)-2-methoxynicotinamide]	3.6
COc1ncc(-c2cnc3n2CC(O)CC3)cc1C(=O)N[C@H]1[C@@H](C(=O)Nc2ccc(F)c(C(F)(F)F)c2)[C@H]2CC[C@@H]1/C2=C\C1CC1 (stereo partly drawn) [Example 104, N-((1R,2R,3S,4R,Z)-7-(cyclopropyl-methylene)-3-((4-fluoro-3-(trifluoromethyl)phenyl)carbamoyl)bicyclo[2.2.1]heptan-2-yl)-5-(6-hydroxy-5,6,7,8-tetrahydroimidazo[1,2-a]pyridin-3-yl)-2-methoxynicotinamide]	4
COc1ncc(C(=O)OC(C)(C)C)cc1C(=O)N[C@H]1[C@@H](C(=O)Nc2ccc(F)c(C(F)(F)F)c2)[C@H]2CC[C@@H]1/C2=C\C1CC1 [Example 78, tert-butyl 5-(((1R,2R,3S,4R,Z)-7-(cyclopropylmethylene)-3-((4-fluoro-3-(trifluoromethyl)phenyl)carbamoyl)bicyclo[2.2.1]heptan-2-yl)carbamoyl)-6-methoxynicotinate]	140

The remaining molecules from weak to strong by EC50, led by results:

EC50 [nM]	SMILES
2400	COc1cc2c(cc1C(=O)N[C@H]1[C@@H](C(=O)Nc3ccc(F)c(C(F)(F)F)c3)[C@H]3CC[C@@H]1/C3=C\C1CC1)CNCC2 [Example 83, N-((1R,2R,3S,4R,Z)-7-(cyclopropylmethylene)-3-((4-fluoro-3-(trifluoromethyl)phenyl)carbamoyl)bicyclo[2.2.1]heptan-2-yl)-6-methoxy-1,2,3,4-tetrahydroisoquinoline-7-carboxamide]
2100	Cn1cc(Br)cc(C(=O)N[C@@H]2C3CCC(/C3=C/C3CC3)[C@@H]2C(=O)Nc2ccc(F)c(C(F)(F)F)c2)c1=O (stereo partly drawn) [Example 18, 5-bromo-N-[(2R,3S,7Z)-7-(cyclopropyl-methylidene)-3-{[4-fluoro-3-(trifluoromethyl)phenyl]carbamoyl}bicyclo [2.2.1]heptan-2-yl]-1-methyl-2-oxo-1,2-dihydropyridino-3-carboxamide]
360	N#Cc1ccc2c(c1)CCc1c(C(=O)N[C@H]3[C@@H](C(=O)Nc4ccc(F)c(C(F)(F)F)c4)[C@H]4CC[C@@H]3/C4=C\C(F)(F)F)nn(CC(F)F)c1-2 [Example 55, 7-cyano-1-(2,2-difluoroethyl)-N-((1R,2R,3S,4R,Z)-3-((4-fluoro-3-(trifluoromethyl)phenyl)carbamoyl)-7-(2,2,2-trifluoroethylidene)bicyclo[2.2.1]heptan-2-yl)-4,5-dihydro-1H-benzo[g]indazole-3-carboxamide]
200	COc1cc2c(cc1C(=O)N[C@H]1[C@@H](C(=O)Nc3ccc(F)c(C(F)(F)F)c3)[C@H]3CC[C@@H]1/C3=C\C1CC1)CN(CC(C)(C)O)CC2 [Example 85, N-((1R,2R,3S,4R,Z)-7-(cyclopropylmethylene)-3-((4-fluoro-3-(trifluoromethyl)phenyl)carbamoyl)bicyclo[2.2.1]heptan-2-yl)-2-(2-hydroxy-2-methylpropyl)-6-methoxy-1,2,3,4-tetrahydroisoquinoline-7-carboxamide]
4.8	COc1ncc(C2=NOC3CC(CO)CC23)cc1C(=O)N[C@H]1[C@@H](C(=O)Nc2ccc(F)c(C(F)(F)F)c2)[C@H]2CC[C@@H]1/C2=C\c1csc(C)n1 (stereo partly drawn) [Example 120, N-((1R,2R,3S,4R,Z)-3-((4-fluoro-3-(trifluoromethyl)phenyl)carbamoyl)-7-((2-methylthiazol-4-yl)methylene)bicyclo [2.2.1]heptan-2-yl)-5-(5-(hydroxymethyl)-3a,5,6,6a-tetrahydro-4H-cyclopenta[d]isoxazol-3-yl)-2-methoxynicotinamide]
3.1	COc1ncc(C2=NOC3CC(CO)CC23)cc1C(=O)N[C@H]1[C@@H](C(=O)Nc2ccc(F)c(C(F)(F)F)c2)[C@H]2CC[C@@H]1/C2=C\C1CCCC1 (stereo partly drawn) [Example 123, N-((1R,2R,3S,4R,Z)-7-(cyclopentyl-methylene)-3-((4-fluoro-3-(trifluoromethyl)phenyl)carbamoyl)bicyclo[2.2.1]heptan-2-yl)-5-(5-(hydroxymethyl)-3a,5,6,6a-tetrahydro-4H-cyclopenta[d]isoxazol-3-yl)-2-methoxynicotinamide]
1.3	COc1ncc(C2=NOC3CC(O)CC23)cc1C(=O)N[C@H]1[C@@H](C(=O)Nc2ccc(F)c(C(F)(F)F)c2)[C@H]2CC[C@@H]1/C2=C\CCC(F)(F)F (stereo partly drawn) [Example 121, N-((1R,2R,3S,4R,Z)-3-((4-fluoro-3-(trifluoromethyl)phenyl)carbamoyl)-7-(4,4,4-trifluorobutylidene)bicyclo[2.2.1]heptan-2-yl)-5-(5-hydroxy-3a,5,6,6a-tetrahydro-4H-cyclopenta[d]isoxazol-3-yl)-2-methoxynicotinamide]
1.2	COc1ncc(C2=NOC3CC(CO)CC23)cc1C(=O)N[C@H]1[C@@H](C(=O)N[C@H](C)C2(C)CC2)[C@H]2CC[C@@H]1/C2=C\C1CC1 (stereo partly drawn) [Example 105, N-((1R,2R,3S,4R,Z)-7-(cyclopropyl-methylene)-3-(((R)-1-(1-methylcyclopropyl)ethyl)carbamoyl)bicyclo[2.2.1]heptan-2-yl)-5-(5-(hydroxymethyl)-3a,5,6,6a-tetrahydro-4H-cyclopenta[d]isoxazol-3-yl)-2-methoxynicotinamide]
